Test results as given in patent publication US7709471B2, “Compounds” (AstraZeneca AB, priority 2006, dated 2010).

Key:
[1] = tested on: human colon tumour cell line HT29; test: Cellular Assay (phosphohistone H3 Ser10 mitotic marker, HT29); assay type: cell-based; settings: HT-29, 24 h, HT29 cells, read-out: IC50 (cellular assay, phosphohistone H3)
[2] = molecular target: recombinant Plk1 (Homo sapiens, UniProt P53350); test: In Vitro Plk1 Enzyme Assay (SPA, GST-Cdc25C phosphorylation); assay type: biochemical; settings: ATP 64 nM, 90 minutes, read-out: IC50 (Plk1 enzyme inhibition)
Chain of recombinant Plk1 (P53350 whole entry): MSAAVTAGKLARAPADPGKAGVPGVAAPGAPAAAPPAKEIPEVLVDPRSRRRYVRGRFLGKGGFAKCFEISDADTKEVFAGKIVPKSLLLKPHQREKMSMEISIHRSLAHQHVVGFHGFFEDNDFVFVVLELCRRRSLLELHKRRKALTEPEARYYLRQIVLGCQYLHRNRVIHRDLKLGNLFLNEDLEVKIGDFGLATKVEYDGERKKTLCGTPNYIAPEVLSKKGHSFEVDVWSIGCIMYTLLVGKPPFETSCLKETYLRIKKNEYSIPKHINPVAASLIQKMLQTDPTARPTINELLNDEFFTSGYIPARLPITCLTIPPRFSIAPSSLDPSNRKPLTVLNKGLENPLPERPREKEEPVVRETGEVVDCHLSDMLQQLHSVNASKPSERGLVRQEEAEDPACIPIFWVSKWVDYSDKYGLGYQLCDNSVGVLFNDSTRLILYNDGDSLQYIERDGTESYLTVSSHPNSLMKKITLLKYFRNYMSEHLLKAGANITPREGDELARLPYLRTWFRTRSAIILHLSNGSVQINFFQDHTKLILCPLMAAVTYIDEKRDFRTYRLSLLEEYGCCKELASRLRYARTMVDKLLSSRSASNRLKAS

Row | Compound | IC50 [1] [nM] | IC50 [2] [nM]
1 | CN(C)CCCNC(=O)c1ccc(Nc2ncc3c(n2)N(C2CCCC2)CCC(=O)N3C)c(Cl)c1 [Example 317, 3-chloro-4-[(2-cyclopentyl-6-methyl-5-oxo-2,6,9,11-tetrazabicyclo[5.4.0]undeca-7,9,11-trien-10-yl)amino]-N-(3-dimethylaminopropyl)benzamide] | < 300 | < 300
2 | CN1C(=O)CCN(C2CCCC2)c2nc(Nc3ccc(C(=O)NCCN4CCCC4)cc3Cl)ncc21 [Example 318, 3-chloro-4-[(2-cyclopentyl-6-methyl-5-oxo-2,6,9,11-tetrazabicyclo[5.4.0]undeca-7,9,11-trien-10-yl)amino]-N-(2-pyrrolidin-1-ylethyl)benzamide] | < 300 | < 300
3 | COc1cc(C(=O)NC2CCN(CC3CC3)CC2)ccc1Nc1ncc2c(n1)N(C1CCCC1)CCC(=O)N2C [Example 319, 4-[(2-cyclopentyl-6-methyl-5-oxo-2,6,9,11-tetrazabicyclo[5.4.0]undeca-7,9,11-trien-10-yl)amino]-N-[1-(cyclopropylmethyl)-4-piperidyl]-3-methoxy-benzamide] | < 300 | < 300
4 | COc1cc(C(=O)NC2CCN(C)CC2)c(Cl)cc1Nc1ncc2c(n1)N(C1CCCC1)CCC(=O)N2C [Example 320, 2-chloro-4-[(2-cyclopentyl-6-methyl-5-oxo-2,6,9,11-tetrazabicyclo[5.4.0]undeca-7,9,11-trien-10-yl)amino]-5-methoxy-N-(1-methyl-4-piperidyl)benzamide] | < 300 | < 300
5 | CN1C(=O)CCN(C2CCCC2)c2nc(Nc3cc(F)c(C(=O)N[C@@H]4CCNC4)cc3Cl)ncc21 [Example 321, 5-chloro-4-[(2-cyclopentyl-6-methyl-5-oxo-2,6,9,11-tetrazabicyclo[5.4.0]undeca-7,9,11-trien-10-yl)amino]-2-fluoro-N-[(3R)-pyrrolidin-3-yl]benzamide] | < 300 | < 300
6 | CN1CCC(NC(=O)c2cc(Cl)c(Nc3ncc4c(n3)N(C3CCCC3)CCC(=O)N4C)cc2F)CC1 [Example 322, 5-chloro-4-[(2-cyclopentyl-6-methyl-5-oxo-2,6,9,11-tetrazabicyclo[5.4.0]undeca-7,9,11-trien-10-yl)amino]-2-fluoro-N-(1-methyl-4-piperidyl)benzamide] | < 300 | < 300
7 | CCN1CCC(NC(=O)c2cc(Cl)c(Nc3ncc4c(n3)N(C3CCCC3)CCC(=O)N4C)cc2F)CC1 [Example 323, 5-chloro-4-[(2-cyclopentyl-6-methyl-5-oxo-2,6,9,11-tetrazabicyclo[5.4.0]undeca-7,9,11-trien-10-yl)amino]-N-(1-ethyl-4-piperidyl)-2-fluoro-benzamide] | < 300 | < 1000
8 | CN1CC[C@@H](NC(=O)c2cc(Cl)c(Nc3ncc4c(n3)N(C3CCCC3)CCC(=O)N4C)cc2F)C1 [Example 325, 5-chloro-4-[(2-cyclopentyl-6-methyl-5-oxo-2,6,9,11-tetrazabicyclo[5.4.0]undeca-7,9,11-trien-10-yl)amino]-2-fluoro-N-[(3R)-1-methylpyrrolidin-3-yl]benzamide] | < 300 | < 300
9 | CCN1CC[C@@H](NC(=O)c2ccc(Nc3ncc4c(n3)N(C3CCCC3)CCC(=O)N4C)c(OC)c2)C1 [Example 326, 4-[(2-cyclopentyl-6-methyl-5-oxo-2,6,9,11-tetrazabicyclo[5.4.0]undeca-7,9,11-trien-10-yl)amino]-N-[(3R)-1-ethylpyrrolidin-3-yl]-3-methoxy-benzamide] | < 300 | < 300
10 | COc1cc(C(=O)NC2C[C@H]3CCC[C@@H](C2)N3C)ccc1Nc1ncc2c(n1)N(C1CCCC1)CC1(CC1)C(=O)N2C (stereo partly drawn) [Example 385, 4-(9′-cyclopentyl-5′-methyl-6′-oxo-5′,6′,8′,9′-tetrahydrospiro[cyclopropane-1,7′-pyrimido[5,4-b][1,4]diazepine]-2′-ylamino)-3-methoxy-N-[(1S,5R)-9-methyl-9-azabicyclo[3.3.1]non-7-yl]benzamide] | < 300 | < 300
11 | COc1cc(C(=O)NC2C[C@H]3CCC[C@@H](C2)N3C)ccc1Nc1ncc2c(n1)N(C1CCCCC1)CC1(CC1)C(=O)N2C (stereo partly drawn) [Example 432, 4-(9′-cyclohexyl-5′-methyl-6′-oxo-5′,6′,8′,9′-tetrahydrospiro[cyclopropane-1,7′-pyrimido[5,4-b][1,4]diazepine]-2′-ylamino)-3-methoxy-N-[(1S,5R)-9-methyl-9-azabicyclo[3.3.1]non-7-yl]benzamide] | < 300 | < 300

Second part, the compound after the results:

Row | IC50 [1] [nM] | IC50 [2] [nM] | Compound
12 | < 300 | < 300 | CCCN1CC[C@@H](NC(=O)c2ccc(Nc3ncc4c(n3)N(C3CCCC3)CCC(=O)N4C)c(OC)c2)C1 [Example 327, 4-[(2-cyclopentyl-6-methyl-5-oxo-2,6,9,11-tetrazabicyclo[5.4.0]undeca-7,9,11-trien-10-yl)amino]-3-methoxy-N-[(3R)-1-propylpyrrolidin-3-yl]benzamide]
13 | < 300 | < 300 | COCCN1CC[C@@H](NC(=O)c2ccc(Nc3ncc4c(n3)N(C3CCCC3)CCC(=O)N4C)c(OC)c2)C1 [Example 328, 4-[(2-cyclopentyl-6-methyl-5-oxo-2,6,9,11-tetrazabicyclo[5.4.0]undeca-7,9,11-trien-10-yl)amino]-3-methoxy-N-[(3R)-1-(2-methoxyethyl)pyrrolidin-3-yl]benzamide]
14 | < 300 | < 300 | CCN1CCC(NC(=O)c2ccc(Nc3ncc4c(n3)N(C3CCCC3)CC3(CC3)C(=O)N4C)c(Cl)c2)CC1 [Example 382, 3-chloro-4-(9′-cyclopentyl-5′-methyl-6′-oxo-5′,6′,8′,9′-tetrahydrospiro[cyclopropane-1,7′-pyrimido[5,4-b][1,4]diazepine]-2′-ylamino)-N-(1-ethylpiperidin-4-yl)benzamide]
15 | < 300 | < 1000 | CCN1CCC(NC(=O)c2ccc(Nc3ncc4c(n3)N(C3CCCC3)CC3(CC3)C(=O)N4C)c(OC)c2)CC1 [Example 383, 4-(9′-cyclopentyl-5′-methyl-6′-oxo-5′,6′,8′,9′-tetrahydrospiro[cyclopropane-1,7′-pyrimido[5,4-b][1,4]diazepine]-2′-ylamino)-N-(1-ethyl-4-piperidyl)-3-methoxy-benzamide]
16 | < 300 | < 300 | COc1cc(C(=O)NCC(C)(C)CN(C)C)ccc1Nc1ncc2c(n1)N(C1CCCC1)CC1(CC1)C(=O)N2C [Example 386, 4-(9′-cyclopentyl-5′-methyl-6′-oxo-5′,6′,8′,9′-tetrahydrospiro[cyclopropane-1,7′-pyrimido[5,4-b][1,4]diazepine]-2′-ylamino)-N-(3-dimethylamino-2,2-dimethyl-propyl)-3-methoxy-benzamide]
17 | < 300 | < 300 | COc1cc(C(=O)NCCN(C)C)ccc1Nc1ncc2c(n1)N(C1CCCC1)CC1(CC1)C(=O)N2C [Example 387, 4-(9′-cyclopentyl-5′-methyl-6′-oxo-5′,6′,8′,9′-tetrahydrospiro[cyclopropane-1,7′-pyrimido[5,4-b][1,4]diazepine]-2′-ylamino)-N-(2-dimethylaminoethyl)-3-methoxy-benzamide]
18 | < 30000 | < 1000 | COc1cc(C(=O)NC2CCN(C)CC2)ccc1Nc1ncc2c(n1)N(C1CCCC1=O)CCC(=O)N2C (stereo not drawn) [Example 410, 3-methoxy-4-[[6-methyl-5-oxo-2-(2-oxocyclopentyl)-2,6,9,11-tetrazabicyclo[5.4.0]undeca-7,9,11-trien-10-yl]amino]-N-(1-methyl-4-piperidyl)benzamide]
19 | < 300 | < 300 | COc1cc(C(=O)NC2CCN(C)CC2)ccc1Nc1ncc2c(n1)N(C1CCCCC1)CC1(CC1)C(=O)N2C [Example 430, 4-(9′-cyclohexyl-5′-methyl-6′-oxo-5′,6′,8′,9′-tetrahydrospiro[cyclopropane-1,7′-pyrimido[5,4-b][1,4]diazepine]-2′-ylamino)-3-methoxy-N-(1-methyl-4-piperidyl)benzamide]
20 | < 300 | < 300 | COc1cc(C(=O)NCCCN(C)C)ccc1Nc1ncc2c(n1)N(C1CCCCC1)CC1(CC1)C(=O)N2C [Example 431, 4-(9′-cyclohexyl-5′-methyl-6′-oxo-5′,6′,8′,9′-tetrahydrospiro[cyclopropane-1,7′-pyrimido[5,4-b][1,4]diazepine]-2′-ylamino)-N-(3-dimethylaminopropyl)-3-methoxy-benzamide]
21 | < 300 | < 100000 | CCN1CCC(NC(=O)c2ccc(Nc3ncc4c(n3)N(C3CCCCC3)CC3(CC3)C(=O)N4C)c(OC)c2)CC1 [Example 433, 4-(9′-cyclohexyl-5′-methyl-6′-oxo-5′,6′,8′,9′-tetrahydrospiro[cyclopropane-1,7′-pyrimido[5,4-b][1,4]diazepine]-2′-ylamino)-N-(1-ethyl-4-piperidyl)-3-methoxy-benzamide]
